Assay results taken from patent publication US20060058227A1, “Hedgehog-related prophylaxis, therapy and diagnosis of gi tract carcinogenesis” (Academisch Ziekenhulis bij de Universiteit van Amsterdam, priority 2002, published 2006).

Columns and labels:
Hh signalling = test: Cyclopamine treatment of rats: Western blots of putative Hedgehog regulated proteins in colonic homogenates; format: in vivo; settings: adult rat colon homogenate, Western blot
Description: (§1) The distal half of the rat colon was dissected along the longitudinal axis and one half was homogenised and processed for Western blotting as described below. Murine stomach and small intestine were homogenised in lysis buffer (300 mmol/L NaCl, 30 mmol/L Tris, 2 mmol/L MgCl2, 2 mmol/L CaCl2, 1% Triton X-100, pH 7.4, supplemented with 1 tablet of protease inhibitor [Roche] per 50 ml). Protein concentration was measured using the Bradford method. Lysates were diluted 1:3 in protein sample buffer (125 mmol/L Tris/HCl, pH 6.8; 4% sodium dodecyl sulfate; 2% β-mercaptoethanol; 20% glycerol, 1 mg bromophenol blue), and 100-200 μof homogenate was loaded per lane on a sodium dodecyl sulfate-pol-yacrylamide gel electrophoresis gel. After protein separation, the proteins were blotted on to a PVDF membrane (Millipore, Bedford, Mass.). Membranes were blocked with 2% protifar (Nutricia, Zoetermeer, The Netherlands) in phosphate-buffered saline (PBS), supplemented with 0.1% Tween-20 for 1 hour at room temperature. After a brief wash in washing buffer (0.2% protifar; 0.1% Tween-20), membranes were incubated overnight at 4° C. with antibody diluted in washing buffer at the indicated concentration. The next day, membranes were washed 3 times for 5 minutes each and subsequently incubated with a secondary horseradish peroxidase tHRP)-conjugated antibody in a 1:2000 dilution. After enhanced chemoluminescence using Lumilight^+ substrate (Roche, Mannheim, Germany), antibody binding was visualised using a Lumi-Imager (Boehringer Mannheim, Mannheim, Germany).
(§2) In addition to the mice described above, 8-week-old female Wistar rats (n=7) were treated with daily intraperitoneal injections of 1 mg/kg of the Hedgehog inhibitor cyclopamine complexed with 2-hydroxypropyl-β-cyclodextrin (HBC; Sigma) as described (van den Brink et al., 2001). Control rats (n=7) received solvent only. After 14 days, rats were given a single intraperitoneal injection of 150 mg/kg BrdU one hour before being killed.
(§3) The distal half of the rat colon was dissected along the longitudinal axis and one half was homogenised and processed for Western blotting as described (van den Brink et al., 2001). To study Shh expression in the human GI tract we used specimens from the archives of the department of pathology of the Academic Medical Center and the Department of Pathology of the Massachusetts General Hospital and Brigham and Women's Hospital. We examined tissue with normal histology of at least 6 different patients to investigate each site along the normal GI tract for Shh expression. Other specimens included: tissue from 16 different patients with intestinal metaplasia of the stomach, 13 resection specimens of Meckel's diverticulum and 6 resection specimens of patients with Barrett's esophagus.

[1] = tested on: precursor cell proliferation in the adult colon; test: Cyclopamine treatment of rats: markers of proliferation in the adult colon (Western blot, BrdU labelling); format: in vivo, rat
Description: (§4) Formalin fixed paraffin embedded human biopsy and resection specimens of uninflamed colonic mucosa, sporadic adenomas, sporadic carcinomas and adenomas from patients with FAP were obtained from the archives of the pathology department of the Academic Medical Center following institutional standards for human subject research. Immunohistochemistry was performed on 4μ sections using a three-step diaminobenzidine (DAB) detection method with antigen retrieval as described in detail previously (van den Brink et al., 2000). For BrdU visualisation, sections were incubated in 2N HCl at 37° C. for 60 minutes after deparaffinization and then washed in boric acid pH 8.5. Sections were counterstained with Mayer's hematoxylin, except when stained for HNF3β, engrailed-1 or β-catenin to allow optimal visualisation of nuclear staining. BrdU positive nuclei were scored as described (van den Brink et al., 2001).
as §1
as §2, with “After 14 days, rats were given a single intraperitoneal injection of 150 mg/kg BrdU one hour before being killed.” left out

[2] = tested on: colonic epithelial cell differentiation; test: Cyclopamine treatment of rats: markers of colonic epithelial differentiation (Western blot, H&E, immunohistochemistry); format: in vivo, rat; settings: for carbonic anhydrase (CA) IV expression in enterocytes / intestinal trefoil factor expression in the enterocytes / Villin distribution in enterocytes: rat colon; for carbonic anhydrase (CA) IV expression in enterocytes: CA IV immunohistochemistry, cyclopamine treated vs control (FIG. 11G,H); for intestinal trefoil factor expression in the enterocytes: ITF immunohistochemistry, cyclopamine treated vs control (FIG. 11I-L); for Villin distribution in enterocytes: Villin immunohistochemistry, cyclopamine treated vs control (FIG. 11E,F); for enterocyte maturation / terminal differentiation of enterocytes in the colon: H&E and immunohistochemistry
Description: as §4, §1, §2, §3

HT-29 cells = test: Butyrate induced differentiation of HT-29 cells, with or without cyclopamine (Western blot); format: cell-based; settings: HT-29 cultures, 2 μ/ml cyclopamine plus butyrate, 24 hours, Western blot (FIGS. 13a,b)
Description: as §1
HT 29 colon cancer cell lines were cultured according to routine procedures in the presence of 10% fetal calf serum (GIBCO). Recombinant Shh (R&D systems) was used at the indicated concentrations; Butyrate (Sigma) was used at a 5 mM concentration.

Compound: CC1=C2C[C@H]3[C@@H](CC=C4C[C@@H](O)CC[C@@]43C)[C@@H]2CC[C@]12O[C@@H]1C[C@H](C)CN[C@H]1[C@H]2C [cyclopamine]
- levels of BMP4 (Hh signalling; cyclopamine 1 mg/kg i.p. daily for 14 days vs solvent controls (FIG. 3, P=0.0001)): markedly induced
- HNF3β protein level (Hh signalling; cyclopamine 1 mg/kg i.p. daily for 14 days vs solvent controls (FIG. 3, P=0.001)): dramatically upregulated
- engrailed-1 protein level (Hh signalling; cyclopamine 1 mg/kg i.p. daily for 14 days vs solvent controls (FIG. 3, P=0.002)): dramatically upregulated
- GATA-6 protein level (Hh signalling; cyclopamine 1 mg/kg i.p. daily for 14 days vs solvent controls (FIG. 3, P=0.005)): significantly downregulated
- Ihh expression under Hh inhibition (Hh signalling; cyclopamine 1 mg/kg i.p. daily for 14 days vs solvent controls (FIG. 3, P=0.08)): not necessary for maintenance of its own expression
- expression levels of BMP-2 (Hh signalling; cyclopamine 1 mg/kg i.p. daily for 14 days vs solvent controls (FIG. 3, P=0.25)): no effect
- expression of PCNA ([1]; adult rat colon homogenate, Western blot, cyclopamine 1 mg/kg i.p. daily for 14 days (FIG. 4, P<0.0001)): increased
- expression of cyclin D1 ([1]; adult rat colon homogenate, Western blot, cyclopamine 1 mg/kg i.p. daily for 14 days (FIG. 4, P=0.01)): increased
- mitogenesis (PCNA, cyclin D1, BrdU labelled epithelial precursor cells) ([1]; adult rat colon, cyclopamine treated vs control (FIG. 12)): enhanced
- incorporation of 5-bromo-2′-deoxyuridine (BrdU labelled cells per crypt) ([1]; adult rat colon, cyclopamine 1 mg/kg i.p. daily for 14 days, BrdU 150 mg/kg one hour before killing (FIG. 4, P=0.036)): increased
- Intestinal trefoil factor (ITF/TFF3) expression, goblet cell lineage marker ([2]; adult rat colon homogenate, Western blot, cyclopamine 1 mg/kg i.p. daily for 14 days (FIG. 4, P=0.008)): strong induction
- expression of Villin, marker of enterocyte differentiation ([2]; adult rat colon homogenate, Western blot, cyclopamine 1 mg/kg i.p. daily for 14 days (FIG. 4, P=0.02)): reduced
- carbonic anhydrase (CA) IV expression in enterocytes [2]: loss
- carbonic anhydrase (CA) IV expression in enterocytes ([2]; listed as Cyclopamine): Loss
- intestinal trefoil factor expression in the enterocytes [2]: induction
- intestinal trefoil factor expression in the enterocytes ([2]; listed as Cyclopamine): strong immunoreactivity
- Villin distribution in enterocytes [2]: villin-redistribution
- Villin distribution in enterocytes ([2]; listed as Cyclopamine): apical staining is diminished and cytoplasmic staining enhanced
- enterocyte maturation / terminal differentiation of enterocytes in the colon ([2]; rat distal colon, cyclopamine treated vs control (FIG. 11)): inhibited
- enterocyte maturation / terminal differentiation of enterocytes in the colon ([2]; rat distal colon, cyclopamine treated vs control (FIG. 11), listed as Cyclopamine): disturbs
- histoarchitecture of the colon ([2]; rat distal colon, H&E, cyclopamine treated vs control (FIG. 11)): dramatic changes
- butyrate mediated induction of E-cadherin (HT-29 cells): significantly reduced
- butyrate mediated induction of Villin (HT-29 cells): significantly reduced
- butyrate mediated induction of cip-1 (HT-29 cells): significantly reduced
